Source: US11390580B2, “Anti-fungals targeting the synthesis of fungal shingolipids” (THE RESEARCH FOUNDATION FOR THE STATE UNIVERSITY OF NEW YORK, priority 2014, dated 2022)
Converted amounts (≈) assume the structure as drawn. “And” between values parts separate entries of the source, which are not always exact repeats. Identical values can stand only once. Like-named read-outs stand apart in the source and are kept apart here.

Legend:
C. neoformans H99 [1] = experiment: Comparison studies, intravenous (CNS) cryptococcosis survival; format: in vivo, mice
Experimental: For survival studies, 4-week old CBA/J female mice (Jackson Laboratory, Bar Harbor, Me.) were used. Total of forty mice were infected by tail vein injection of 200 μL containing 10^5 cells of C. neoformans H99 and were randomly separated into 5 groups (8 mice per group). Treatment started within 2 hours of infection. The treated mice received an intraperitoneal injection of 1.2 mg/kg/day of BHBM, 1, amphotericin B or 10 mg/kg/day of fluconazole in 100 μL final volume of PBS containing 0.4% DMSO. Untreated mice, received 100 μL of PBS/0.4% DMSO. Mice were fed ad-libitum and monitored closely for sign of discomfort and meningitis. Mice showing abnormal gait, lethargy, tremor, significant loss of body weight, or inability to reach water or food were sacrificed and survival was counted until that day.

Solubility = format: physicochemical; details: at 1 mg/ml concentration
Candida albicans SC-5314 = experiment: Animal studies for candidiasis (intravenous infection); format: in vivo, mice
Experimental: For survival studies, 8-week old CBA/J female mice (Jackson Laboratory) were used. Eight mice per treatment or control group were used. Mice were infected by intravenous inoculation of 100 μL containing 1×10^5 cells of Candida albicans SC-5314 strain. […] Untreated mice, received 100 μL of PBS/0.4% DMSO. Mice were feed ad-libitum and monitored closely for sign of discomfort. At the end of the survival study, tissue burden culture was performed in mice that survived the infection. Mice were sacrificed and their organs were extracted and homogenized in 10 ml sterile PBS using homogenizer. Organ homogenates were diluted 10 times in PBS, and 100 μL was plated on YPD agar plates and incubated at 30° C. for 72 hours for CFU count.

C. neoformans [2] = experiment: Resistance assay, daily passages in sub-MIC drug; details: 15 days of passages below the MIC
[3] = In vitro toxicity, MTT assay; details: mouse, J774.16 macrophage cells
P. murina [4] = experiment: Animal studies for pneumocystosis, CD4-depleted mice; details: mouse, in vivo
L2 cell line = experiment: In vitro toxicity; format: cell-based
A549 cell line = experiment: In vitro toxicity; format: cell-based
Cryptococcus neoformans = experiment: In vitro susceptibility testing (MIC); format: cell-based
[5] = In vivo toxicity in uninfected mice; details: treated daily for 60 days
Candida spp = experiment: In vitro susceptibility testing; format: cell-based; details: most Candida spp examined
[6] = tested on: C. neoformans sphingolipids; experiment: Sphingolipid levels by TLC and lipid mass spectrometry; format: cell-based, Cryptococcus neoformans; details: TLC, confirmed by mass spectrometry
Experimental: Labeling fungal cells. […] Samples without drug were included as control. Before lipid extraction, lipid internal standards (C17 ceramide and C17 sphingosine) were added. Lipids were then extracted following the methods of […] and Bligh and Dyer and one fourth of the sample was aliquoted for determination of the inorganic phosphate. The remainder of the sample was subjected to base hydrolysis and then analyzed using LC/MS. Results were normalized with the inorganic phosphate levels.

[7] = tested on: synthesis of GlcCer in mammalian (J774) cells; experiment: In vivo labeling with 3H palmitate, TLC of GlcCer; format: cell-based, murine; details: 3H palmitate labeling
P. murina [8] = tested on: P. murina
P. murina [9] = tested on: P. murina; remark: listed apart in the source
[10] = tested on: synthesis of GlcCer in C. neoformans cells; experiment: In vivo labeling with 3H palmitate, TLC of GlcCer; details: 3H palmitate labeling
C. neoformans H99 [11] = experiment: Animal studies for cryptococcosis (intranasal infection); format: in vivo, mice
C. neoformans [12] = experiment: In vitro killing assay (time-kill, CFU); format: cell-based, Cryptococcus neoformans
Experimental: At the illustrated time points, aliquots were taken and diluted and 100 μL was plated onto yeast peptone dextrose (YPD) plates. YPD plates were incubated in a 30° C. incubator and, after 72 hours, colony forming units (CFU) were counted and recorded.

C. neoformans [13] = experiment: Synergistic assay (fractional inhibitory index, FIC)
C. neoformans (H99) = experiment: Transmission electron microscopy of treated cells; details: 4 μg/mL, 6 hours
Pneumocystis murina = experiment: In vitro testing by ATP content (luciferin-luciferase); details: read-out: percentage inhibition of ATP
Pneumocystis jiroveci = experiment: as above; details: read-out: percentage inhibition of ATP

## C[C@@H]1[C@H](O)[C@@H](C)/C=C/C=C/C=C/C=C/C=C/C=C/C=C/[C@H](O[C@@H]2O[C@H](C)[C@@H](O)[C@H](N)[C@@H]2O)C[C@@H]2O[C@](O)(C[C@@H](O)C[C@@H](O)[C@H](O)CC[C@@H](O)C[C@@H](O)CC(=O)O[C@H]1C)C[C@H](O)[C@H]2C(=O)O [Amphotericin B]
C. neoformans H99 [1]; IP, 1.2 mg/kg/day BHBM, 1, amphotericin B, 10 mg/kg/day fluconazole
  average survival: 23.5 ± 6.5 days

## O=C(NN=Cc1ccc(O)c(Br)c1)c1cccc(Br)c1 [Compound 1, 3-bromo-N′-(3-bromo-4-hydroxybenzylidene) benzohydrazide]
Solubility
  DMSO required: 50%
Candida albicans SC-5314; 1.2 mg/kg/day intraperitoneally, after 21 days of infection
  mice alive: 75%
Candida albicans SC-5314; day 21, surviving treated mice
  clearance of infection (tissue burden): able to clear C. albicans infection
C. neoformans [2]
  development of resistance: do not develop resistance
[3]
  EC50 at 48 h: 50 µg/mL (≈ 126 µM)
P. murina [4]
  signs of toxicity: no signs of toxicity
L2 cell line
  toxicity: slight to moderate toxicity
A549 cell line
  toxicity: slight to moderate toxicity
Cryptococcus neoformans
  antifungal activity of derivatives: improved activity
Cryptococcus neoformans; Cryptococcus neoformans, read-out: MFC (minimum fungicidal concentration)
  MFC: 1.2 µg/mL (≈ 3.01 µM)
[5]
  appearance, weight, physical activity and behavior: appeared normal
Candida spp
  in vitro susceptibility: resistant
[6]
  sphingosine level: accumulation of sphingosines
[7]
  inhibition of the synthesis of GlcCer: no significant changes
[7]; listed as #5285729
  inhibition of the synthesis of GlcCer: not in mammalian (J774) cells
P. murina [8]; 14 days of treatment
  survival: improved survival
P. murina [8]; day 14
  number of asci in the lung: significantly decreased
P. murina [9]
  toxicity in mice immunosuppressed with corticosteroids: some toxicity
P. murina [9]; 1.25 mg/kg/day and 12.5 mg/kg/day for 14 days
  asci and troph burdens vs vehicle: significantly reduced
P. murina [9]; 1.25 and 12.5 mg/kg/day, 14 days
  survival vs control steroid negative controls: did not increase survival
[10]
  inhibition of the synthesis of GlcCer: significantly inhibit the synthesis of GlcCer
C. neoformans H99 [11]; 1.2 mg/Kg/day intraperitoneally, up to 60 days
  mice surviving infection: 70%
C. neoformans H99 [11]; 1.2 mg/Kg/day, day 60
  fungal burden in brain: No C. neoformans cells were found in brains
C. neoformans H99 [11]; 1.2 mg/Kg/day, day 60, compared to infected untreated mice
  fungal burden in lung: decrease the fungal burden in the lung
C. neoformans H99 [11]; day 60
  brain histology: no fungal cells and normal structure
  lung histology: granulomatous response limited in few areas of the lung
C. neoformans [12]; time-kill assay
  type of killing: time-dependent killing
C. neoformans [12]; within 24 hours
  dead cells: 100%
C. neoformans [13]; combined with Amphotericin B
  FIC index: 0.77
C. neoformans [13]; combined with Fluconazole
  FIC index: 0.47
C. neoformans [13]; combined with Tunicamycin
  interaction: additive
C. neoformans [13]; combined with caspofungin
  FIC index: 1
C. neoformans (H99)
  number of vacuoles per μm^2 of cell surface area: 0.93±0.54

## N=C(N)c1ccc(OCCCCCOc2ccc(C(=N)N)cc2)cc1 [Pentamidine, reference compound]
Pneumocystis murina; 24 h
  inhibition at 1 µg/mL: 78.2%
Pneumocystis murina; 48 h
  inhibition at 1 µg/mL: 80.3%
Pneumocystis murina; 72 h
  inhibition at 1 µg/mL: 74.1%
Pneumocystis murina; 96 h
  inhibition at 1 µg/mL: 27.8%
Pneumocystis jiroveci; 24 h
  inhibition at 1 µg/mL: 45.7%
Pneumocystis jiroveci; 48 h
  inhibition at 1 µg/mL: 86.5%
Pneumocystis jiroveci; 72 h
  inhibition at 1 µg/mL: 84.2%
Pneumocystis jiroveci; 96 h
  inhibition at 1 µg/mL: 81.4%

## OC(Cn1cncn1)(Cn1cncn1)c1ccc(F)cc1F [fluconazole]
C. neoformans H99 [1]; mouse, in vivo
  average survival: 10 ± 2 days and 10.0 ± 2.0 days
